Results reported in the supplement of paper PMC6045584.
± gives the standard deviation of the averaged measurements.

Key:
[1] = compound: CN1CCN(c2nc(C3=C(c4c[nH]c5ccccc45)C(=O)NC3=O)c3ccccc3n2)CC1 [SOTRASTAURIN/AEB071]; assay: surviving fraction relative to DMSO-only wells; higher = less growth inhibition; conditions: exposure time: 5 days
Outline: (§1)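 For each tumour cell line, log-phase cells were put into 384-well plates at 250–500 cells per well, then after 24 hours exposed continuously for five days to inhibitors at 0.5, 1, 5, 10, 50, 100, 500 and 1000 nM. Viability was assessed by CellTiter-Glo luminescence, with surviving fraction expressed relative to the median of DMSO-only wells. Lines were screened three times and retained only if replicate Pearson r exceeded 0.7 and median Z' exceeded 0.3.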

[2] = compound: CCn1c(C(=O)N(C2CC2)C2CC2)cc2c3c(ncn3C)c(Nc3cc(C)n(C)n3)nc21; assay: as above; conditions: exposure time: 5 days
Outline: as §1

Test System | surviving fraction ([1]; 0.5 nM) | surviving fraction ([1]; 1 nM) | surviving fraction ([1]; 5 nM) | surviving fraction ([1]; 10 nM) | surviving fraction ([1]; 50 nM) | surviving fraction ([1]; 100 nM) | surviving fraction ([1]; 500 nM) | surviving fraction ([1]; 1000 nM) | surviving fraction ([2]; 0.5 nM) | surviving fraction ([2]; 1 nM) | surviving fraction ([2]; 5 nM) | surviving fraction ([2]; 10 nM) | surviving fraction ([2]; 50 nM) | surviving fraction ([2]; 100 nM) | surviving fraction ([2]; 500 nM) | surviving fraction ([2]; 1000 nM)
MDAMB453 BREAST | 0.996 ± 0.053 | 0.971 ± 0.081 | 1.01 ± 0.058 | 1 ± 0.076 | 0.915 ± 0.048 | 0.969 ± 0.1 | 0.951 ± 0.014 | 0.895 ± 0.05 | 1.02 ± 0.033 | 0.992 ± 0.039 | 0.983 ± 0.02 | 0.986 ± 0.028 | 1.048 ± 0.0087 | 1.05 ± 0.033 | 1.04 ± 0.015 | 1.02 ± 0.028
MDAMB436 BREAST | 0.976 ± 0.12 | 0.96 ± 0.057 | 0.932 ± 0.14 | 0.992 ± 0.13 | 0.943 ± 0.043 | 0.816 ± 0.052 | 0.955 ± 0.073 | 0.952 ± 0.056 | 0.857 ± 0.024 | 0.807 ± 0.1 | 0.8337 ± 0.0019 | 0.877 ± 0.086 | 0.926 ± 0.029 | 0.946 ± 0.12 | 0.983 ± 0.13 | 0.941 ± 0.033
SIHA CERVIX | 0.988 ± 0.039 | 1 ± 0.12 | 1.12 ± 0.041 | 1.06 ± 0.1 | 0.935 ± 0.055 | 0.989 ± 0.0056 | 0.944 ± 0.048 | 0.849 ± 0.05 | 0.868 ± 0.064 | 0.906 ± 0.052 | 0.991 ± 0.036 | 0.965 ± 0.041 | 1.04 ± 0.068 | 1.08 ± 0.057 | 0.983 ± 0.11 | 0.91 ± 0.078
OS25HAL BONE | 1.02 ± 0.057 | 1.006 ± 0.0082 | 1.03 ± 0.039 | 1.03 ± 0.014 | 1.09 ± 0.018 | 1.04 ± 0.042 | 1.09 ± 0.025 | 1.03 ± 0.038 | 0.9497 ± 0.005 | 0.953 ± 0.018 | 0.945 ± 0.015 | 0.952 ± 0.022 | 1.04 ± 0.024 | 1.045 ± 0.0067 | 1.018 ± 0.0064 | 1.01 ± 0.011
BT20 BREAST | 1.12 ± 0.043 | 1.14 ± 0.11 | 1.19 ± 0.052 | 1.15 ± 0.024 | 0.836 ± 0.013 | 0.893 ± 0.15 | 0.912 ± 0.029 | 0.972 ± 0.055 | 1.07 ± 0.032 | 0.999 ± 0.25 | 1.09 ± 0.24 | 1 ± 0.2 | 1.1 ± 0.26 | 1.07 ± 0.16 | 1.16 ± 0.22 | 1.24 ± 0.18
HCT15 LARGE INTESTINE | 1.03 ± 0.12 | 1.07 ± 0.024 | 1.05 ± 0.053 | 1.02 ± 0.081 | 1.05 ± 0.054 | 1.05 ± 0.061 | 1.02 ± 0.079 | 1.05 ± 0.069 | 0.987 ± 0.032 | 0.972 ± 0.011 | 0.944 ± 0.021 | 0.986 ± 0.011 | 1.05 ± 0.043 | 1.05 ± 0.031 | 1.06 ± 0.018 | 1.06 ± 0.03
A549 LUNG | 1.059 ± 0.0099 | 1.11 ± 0.015 | 1.076 ± 0.0085 | 1.06 ± 0.017 | 1.07 ± 0.021 | 1.102 ± 0.0085 | 1.07 ± 0.03 | 1.06 ± 0.048 | 0.956 ± 0.034 | 0.941 ± 0.018 | 0.949 ± 0.02 | 0.963 ± 0.022 | 0.958 ± 0.057 | 1.024 ± 0.0095 | 1 ± 0.084 | 1.02 ± 0.03
YAMATO SYNOVIAL | 1.14 ± 0.068 | 1.23 ± 0.018 | 1.28 ± 0.13 | 1.38 ± 0.11 | 0.962 ± 0.096 | 0.968 ± 0.032 | 0.945 ± 0.024 | 0.96 ± 0.059 | 1.22 ± 0.059 | 1.21 ± 0.076 | 1.234 ± 0.012 | 1.19 ± 0.027 | 1.4 ± 0.081 | 1.32 ± 0.15 | 1.327 ± 0.0092 | 1.14 ± 0.023
SCC003 HEADNECK | 1.06 ± 0.027 | 1.01 ± 0.12 | 1.1 ± 0.026 | 1.04 ± 0.061 | 1.08 ± 0.13 | 0.949 ± 0.081 | 0.998 ± 0.14 | 1.04 ± 0.099 | 0.92 ± 0.15 | 0.937 ± 0.047 | 1.02 ± 0.095 | 0.968 ± 0.015 | 1.11 ± 0.099 | 1.12 ± 0.12 | 0.917 ± 0.12 | 0.928 ± 0.045
VCAP PROSTATE | 1.08 ± 0.18 | 1.01 ± 0.11 | 1.08 ± 0.06 | 1.03 ± 0.096 | 0.883 ± 0.1 | 1.1 ± 0.052 | 0.941 ± 0.085 | 0.931 ± 0.13 | 0.98 ± 0.059 | 1.05 ± 0.12 | 1.15 ± 0.09 | 1.03 ± 0.051 | 1.11 ± 0.11 | 1.13 ± 0.18 | 1.06 ± 0.078 | 1.06 ± 0.092
HELA CERVIX | 1.03 ± 0.029 | 1.05 ± 0.052 | 1.05 ± 0.072 | 0.974 ± 0.043 | 1.14 ± 0.15 | 1.15 ± 0.063 | 1.11 ± 0.057 | 1.12 ± 0.092 | 1 ± 0.096 | 0.998 ± 0.036 | 0.939 ± 0.059 | 0.953 ± 0.044 | 1.09 ± 0.033 | 1.04 ± 0.026 | 1.05 ± 0.037 | 1.1 ± 0.09
C33A CERVIX | 0.938 ± 0.17 | 1.05 ± 0.059 | 1.14 ± 0.045 | 1.05 ± 0.12 | 1.19 ± 0.071 | 1.16 ± 0.13 | 1.14 ± 0.077 | 1.2 ± 0.086 | 0.809 ± 0.035 | 0.801 ± 0.11 | 0.926 ± 0.082 | 1.03 ± 0.19 | 0.895 ± 0.049 | 1.08 ± 0.15 | 0.768 ± 0.025 | 0.657 ± 0.1
HU09 BONE | 0.957 ± 0.092 | 1.03 ± 0.088 | 1.08 ± 0.075 | 1.1 ± 0.075 | 0.898 ± 0.085 | 0.929 ± 0.11 | 0.851 ± 0.026 | 0.925 ± 0.11 | 1.06 ± 0.09 | 1.03 ± 0.11 | 1.09 ± 0.081 | 1.18 ± 0.22 | 1.25 ± 0.32 | 1 ± 0.072 | 0.915 ± 0.091 | 0.932 ± 0.064
SCC47 HEADNECK | 1.04 ± 0.046 | 1.12 ± 0.12 | 1.16 ± 0.062 | 1.13 ± 0.14 | 1.06 ± 0.07 | 1.08 ± 0.046 | 1 ± 0.031 | 1.05 ± 0.13 | 0.86 ± 0.014 | 0.823 ± 0.037 | 0.995 ± 0.094 | 0.968 ± 0.1 | 0.99 ± 0.063 | 1.06 ± 0.072 | 0.88 ± 0.016 | 0.916 ± 0.12
SUM149.B1*.S BREAST | 1.11 ± 0.028 | 1.08 ± 0.06 | 1.06 ± 0.093 | 1.07 ± 0.061 | 1.11 ± 0.059 | 1.04 ± 0.024 | 1.04 ± 0.1 | 1.03 ± 0.042 | 1.05 ± 0.053 | 0.99 ± 0.02 | 1.05 ± 0.014 | 1 ± 0.013 | 1.08 ± 0.045 | 1.11 ± 0.018 | 1.07 ± 0.011 | 1.08 ± 0.033
MG63 BONE | 1.02 ± 0.053 | 1.05 ± 0.047 | 1.06 ± 0.049 | 1.09 ± 0.027 | 1.07 ± 0.04 | 1.03 ± 0.065 | 1.02 ± 0.042 | 0.937 ± 0.029 | 0.9877 ± 0.0096 | 0.944 ± 0.016 | 0.992 ± 0.02 | 0.981 ± 0.031 | 1.01 ± 0.011 | 0.98 ± 0.015 | 0.928 ± 0.013 | 0.891 ± 0.021
SAOS2 BONE | 1.11 ± 0.024 | 1.06 ± 0.082 | 1.14 ± 0.054 | 1.12 ± 0.023 | 0.9 ± 0.069 | 0.836 ± 0.066 | 0.831 ± 0.079 | 0.839 ± 0.14 | 1 ± 0.061 | 0.97 ± 0.011 | 1.06 ± 0.12 | 0.96 ± 0.031 | 1.12 ± 0.02 | 1.05 ± 0.069 | 1.05 ± 0.072 | 1.04 ± 0.091
SYO1 SYNOVIAL | 1.02 ± 0.053 | 1.01 ± 0.058 | 1.04 ± 0.063 | 0.991 ± 0.068 | 0.869 ± 0.031 | 0.875 ± 0.021 | 0.891 ± 0.038 | 0.909 ± 0.038 | 0.939 ± 0.069 | 0.927 ± 0.055 | 0.951 ± 0.027 | 0.917 ± 0.09 | 1.01 ± 0.051 | 0.97 ± 0.011 | 0.977 ± 0.045 | 0.98 ± 0.017
OSHN BONE | 1.01 ± 0.049 | 0.989 ± 0.042 | 1.03 ± 0.044 | 1.02 ± 0.026 | 1.03 ± 0.021 | 0.979 ± 0.01 | 1 ± 0.0049 | 0.998 ± 0.014 | 1.03 ± 0.026 | 1.02 ± 0.016 | 1.03 ± 0.017 | 1.01 ± 0.025 | 1.05 ± 0.041 | 1.03 ± 0.04 | 1.03 ± 0.033 | 0.999 ± 0.023
SG31 HEADNECK | 1.28 ± 0.26 | 1 ± 0.12 | 1.25 ± 0.26 | 1.12 ± 0.23 | 0.935 ± 0.12 | 1.03 ± 0.12 | 1.11 ± 0.12 | 1.14 ± 0.032 | 1.04 ± 0.069 | 1.02 ± 0.043 | 1.02 ± 0.12 | 0.875 ± 0.1 | 0.949 ± 0.13 | 1.08 ± 0.46 | 0.955 ± 0.16 | 0.961 ± 0.06
